Data: ChEMBL document CHEMBL4808205, “Discovery of TAK-041: a Potent and Selective GPR139 Agonist Explored for the Treatment of Negative Symptoms Associated with Schizophrenia” (J Med Chem, 2021)

Experiments:
[1] = Cmax in rat at 1 mg/kg, iv or 2 mg/kg, po; assay type: ADME, organism-based; parameters: dose 2 mg/kg; settings: in vivo
[2] = Volume of distribution in rat at 1 mg/kg, iv or 2 mg/kg, po; assay type: ADME, organism-based; settings: in vivo
[3] = Oral bioavailability in mouse at 30 mg/kg after 1 hr; assay type: ADME, organism-based; settings: in vivo
[4] = Bioavailability in rat at 1 mg/kg, iv; assay type: ADME, organism-based; settings: in vivo, po 2 mg/kg vs iv 1 mg/kg
[5] = Free drug concentration in BALB/c mouse brain; assay type: ADME, tissue-based; settings: in vivo
MDR1 (human) = assay: Permeability across apical to basolateral side in pig LLC-PK1 cells expressing human MDR1; assay type: ADME, cell-based, Sus scrofa; settings: read-out: permeability
[6] = Lipophilicity, logD of compound; assay type: physicochemical; settings: octanol/water
MDR1 = assay: Apparent permeability in dog MDCK-MDR1 cells; assay type: ADME, cell-based, Canis lupus familiaris

Compound | Cmax [1] [ng/mL] | Vd [2] [L/kg] | bioavailability [3] [%] | bioavailability [4] [%] | Drug uptake(free) [5] [nM] | Papp A→B (MDR1 (human)) [×10⁻⁶ cm/s] | logD [6] | Papp (MDR1) [×10⁻⁶ cm/s]
COc1ccc2nnn(CC(=O)N[C@@H](C)c3ccc(C)cc3)c(=O)c2c1 | 15 | 0.6 |  | 2 |  |  |  | 
COc1cccc2nnn(CC(=O)N[C@@H](C)c3ccc(C)cc3)c(=O)c12 | 541 | 0.4 |  | 50 | < 10 |  |  | 
C[C@H](NC(=O)Cn1nnc2ccccc2c1=O)c1ccc(OC(F)(F)F)cc1 [ZELATRIAZIN] | 961 | 1 |  | 100 | < 10 | 18.3 | 2.4 | 

Second part, the compound after the results:

Cmax [1] [ng/mL] | Vd [2] [L/kg] | bioavailability [3] [%] | bioavailability [4] [%] | Drug uptake(free) [5] [nM] | Papp A→B (MDR1 (human)) [×10⁻⁶ cm/s] | logD [6] | Papp (MDR1) [×10⁻⁶ cm/s] | Compound
94 | 2.1 | 30 | 27 |  |  |  |  | Cc1ccc([C@H](C)NC(=O)Cn2nnc3ccccc3c2=O)cc1
644 | 1.4 |  | > 100 | < 10 |  |  |  | C[C@H](NC(=O)Cn1nnc2ccccc2c1=O)c1ccc(C(F)(F)F)cc1
 |  |  |  |  |  |  | 9.1 | O=C(Cn1nnc2ccccc2c1=O)NCCc1ccc(Cl)cc1
